Test results taken from US8952024B2, “Herbicidal pyrimidone derivatives” (E I du Pont de Nemours and Company, priority 2009, dated 2015).
Where two headings read alike, the source gives them in different places.

Tests used:
Test in all cases: Test B pre-/postemergence plant response
Type in all cases: in vivo
[1] = tested on: johnsongrass (Sorghum halepense); details: Sorghum halepense, read-out: Plant response rating, Johnsongrass
Method in brief: (§1)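 Compound in solvent + surfactant applied pre-em (loam/sand) or post-em (plants 2–18 cm, peat medium); greenhouse hold 13–15 days; visual 0–100 control score.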

[2] = tested on: Surinam grass (Brachiaria decumbens); details: for pest or weed control at 125 g/ha: 125 g ai/ha
Method in brief: as §1

soybean (Glycine max) = details: for plant injury at 125 g/ha: 125 g ai/ha
Method in brief: as §1

[3] = tested on: blackgrass (Alopecurus myosuroides); details: for pest or weed control at 31 g/ha: 31 g ai/ha; for pest or weed control at 125 g/ha: 125 g ai/ha
Method in brief: as §1

wild oat (Avena fatua) = details: for pest or weed control at 31 g/ha: 31 g ai/ha; for pest or weed control at 125 g/ha: 125 g ai/ha
Method in brief: as §1

[4] = tested on: green foxtail (Setaria viridis); details: for pest or weed control at 31 g/ha: 31 g ai/ha; for pest or weed control at 125 g/ha: 125 g ai/ha
Method in brief: as §1

[5] = tested on: large crabgrass (Digitaria sanguinalis); details: for pest or weed control at 31 g/ha: 31 g ai/ha; for pest or weed control at 125 g/ha: 125 g ai/ha
Method in brief: as §1

[6] = tested on: yellow nutsedge (Cyperus esculentus); details: for pest or weed control at 31 g/ha: 31 g ai/ha; for pest or weed control at 125 g/ha: 125 g ai/ha
Method in brief: as §1

[7] = tested on: velvetleaf (Abutilon theophrasti); details: for pest or weed control at 125 g/ha: 125 g ai/ha
Method in brief: as §1

[8] = 62 g ai/ha, postemergence, 0 is no effect, 100 is complete control, 13 to 15 days
[9] = Preemergence, 250 g ai/ha, 0 to 100 scale

## O=C1CCCC(O)=C1C(=O)c1cnc(-c2cccnc2)n(-c2ccccc2)c1=O [Compound 113, 5-[(2-hydroxy-6-oxo-1-cyclohexen-1-yl)carbonyl]-3-phenyl-2-(3-pyridinyl)-4(3H)-pyrimidone]
[1]; post-emergence, Postemergence, 250 g ai/ha, scale 0 to 100 (0 no effect, 100 complete control)
  pest or weed control at 250 g/ha: 95%
[1]; pre-emergence, Preemergence, 31 g ai/ha, scale 0 to 100 (0 no effect, 100 complete control)
  pest or weed control at 31 g/ha: 0%
[1]; pre-emergence, Preemergence, 62 g ai/ha, scale 0 to 100, 0 no effect, 100 complete control
  pest or weed control at 62 g/ha: 5%
[1]; pre-emergence, Preemergence, 125 g ai/ha, scale 0 to 100, 0 no effect, 100 complete control
  pest or weed control at 125 g/ha: 60%
[2]; [8]
  Surinam Grass plant response rating (0 to 100 scale): 85
[2]; [9]
  Surinam Grass plant response rating: 98
[2]; Urochloa decumbens, post-emergence, Postemergence, scale 0 to 100 (0 no effect, 100 complete control), read-out: Plant response rating, Surinam Grass
  pest or weed control at 125 g/ha: 90%
[2]; Urochloa decumbens, post-emergence, Postemergence, 250 g ai/ha, scale 0 to 100 (0 no effect, 100 complete control), read-out: Plant response rating, Surinam Grass
  pest or weed control at 250 g/ha: 90%
[2]; Urochloa decumbens, pre-emergence, Preemergence, 31 g ai/ha, scale 0 to 100 (0 no effect, 100 complete control), read-out: Plant response rating, Surinam Grass
  pest or weed control at 31 g/ha: 0%
[2]; Urochloa decumbens, pre-emergence, Preemergence, 62 g ai/ha, scale 0 to 100 (0 no effect, 100 complete control), read-out: Plant response rating, Surinam Grass
  pest or weed control at 62 g/ha: 80%
[2]; Urochloa decumbens, pre-emergence, Preemergence, scale 0 to 100, 0 no effect, 100 complete control, read-out: Plant response rating, Surinam Grass
  pest or weed control at 125 g/ha: 95%
Soybean (Glycine max); [8]
  Soybean plant response rating (0 to 100 scale): 98
Soybean (Glycine max); Glycine max, post-emergence, Postemergence, scale 0 to 100 (0 no effect, 100 complete control), read-out: Plant response rating, Soybean
  plant injury at 125 g/ha: 98%
Soybean (Glycine max); Glycine max, post-emergence, Postemergence, 250 g ai/ha, scale 0 to 100 (0 no effect, 100 complete control), read-out: Plant response rating, Soybean
  plant injury at 250 g/ha: 98%
Soybean (Glycine max); Glycine max, pre-emergence, Preemergence, 31 g ai/ha, scale 0 to 100 (0 no effect, 100 complete control), read-out: Plant response rating, Soybean
  plant injury at 31 g/ha: 0%
Soybean (Glycine max); Glycine max, pre-emergence, Preemergence, 62 g ai/ha, scale 0 to 100, 0 no effect, 100 complete control, read-out: Plant response rating, Soybean
  plant injury at 62 g/ha: 65%
Soybean (Glycine max); Glycine max, pre-emergence, Preemergence, scale 0 to 100, 0 no effect, 100 complete control, read-out: Plant response rating, Soybean
  plant injury at 125 g/ha: 85%
Soybean (Glycine max); [9]
  Soybean plant response rating: 90
[3]; [8]
  Blackgrass plant response rating (0 to 100 scale): 0
[3]; Alopecurus myosuroides, post-emergence, 360 h, postemergence, scale 0 to 100, 0 is no effect, 100 is complete control, read-out: Plant response rating, Blackgrass
  pest or weed control at 31 g/ha: 0%
[3]; Alopecurus myosuroides, post-emergence, 360 h, Postemergence, scale 0 to 100 (0 no effect, 100 complete control), read-out: Plant response rating, Blackgrass
  pest or weed control at 125 g/ha: 5%
[3]; Alopecurus myosuroides, post-emergence, 360 h, Postemergence, 250 g ai/ha, scale 0 to 100 (0 no effect, 100 complete control), read-out: Plant response rating, Blackgrass
  pest or weed control at 250 g/ha: 5%
[3]; Alopecurus myosuroides, pre-emergence, 360 h, Preemergence, scale 0 to 100 (0 no effect, 100 complete control), read-out: Plant response rating, Blackgrass
  pest or weed control at 31 g/ha: 0%
[3]; Alopecurus myosuroides, pre-emergence, 360 h, Preemergence, 62 g ai/ha, scale 0 to 100, 0 no effect, 100 complete control, read-out: Plant response rating, Blackgrass
  pest or weed control at 62 g/ha: 0%
[3]; Alopecurus myosuroides, pre-emergence, 360 h, Preemergence, scale 0 to 100, 0 no effect, 100 complete control, read-out: Plant response rating, Blackgrass
  pest or weed control at 125 g/ha: 0%
[3]; [9]
  Blackgrass plant response rating: 20
Wild oat (Avena fatua); [8]
  Oat, Wild plant response rating (0 to 100 scale): 40
Wild oat (Avena fatua); Avena fatua, post-emergence, postemergence, scale 0 to 100, 0 is no effect, 100 is complete control, read-out: Plant response rating, Oat, Wild
  pest or weed control at 31 g/ha: 20%
Wild oat (Avena fatua); Avena fatua, post-emergence, Postemergence, scale 0 to 100 (0 no effect, 100 complete control), read-out: Plant response rating, Oat, Wild
  pest or weed control at 125 g/ha: 45%
Wild oat (Avena fatua); Avena fatua, post-emergence, Postemergence, 250 g ai/ha, scale 0 to 100 (0 no effect, 100 complete control), read-out: Plant response rating, Oat, Wild
  pest or weed control at 250 g/ha: 85%
Wild oat (Avena fatua); Avena fatua, pre-emergence, Preemergence, scale 0 to 100 (0 no effect, 100 complete control), read-out: Plant response rating, Oat, Wild
  pest or weed control at 31 g/ha: 0%
Wild oat (Avena fatua); Avena fatua, pre-emergence, Preemergence, 62 g ai/ha, scale 0 to 100 (0 no effect, 100 complete control), read-out: Plant response rating, Oat, Wild
  pest or weed control at 62 g/ha: 5%
Wild oat (Avena fatua); Avena fatua, pre-emergence, Preemergence, scale 0 to 100, 0 no effect, 100 complete control, read-out: Plant response rating, Oat, Wild
  pest or weed control at 125 g/ha: 20%
Wild oat (Avena fatua); [9]
  Oat, Wild plant response rating: 40
[4]; [8]
  Foxtail, Green plant response rating (0 to 100 scale): 80
[4]; [9]
  Foxtail, Green plant response rating: 100
[4]; Setaria viridis, post-emergence, postemergence, scale 0 to 100, 0 is no effect, 100 is complete control, read-out: Plant response rating, Foxtail, Green
  pest or weed control at 31 g/ha: 80%
[4]; Setaria viridis, post-emergence, Postemergence, scale 0 to 100 (0 no effect, 100 complete control), read-out: Plant response rating, Foxtail, Green
  pest or weed control at 125 g/ha: 80%
[4]; Setaria viridis, post-emergence, Postemergence, 250 g ai/ha, scale 0 to 100 (0 no effect, 100 complete control), read-out: Plant response rating, Foxtail, Green
  pest or weed control at 250 g/ha: 95%
[4]; Setaria viridis, pre-emergence, Preemergence, scale 0 to 100 (0 no effect, 100 complete control), read-out: Plant response rating, Foxtail, Green
  pest or weed control at 31 g/ha: 10%
[4]; Setaria viridis, pre-emergence, Preemergence, 62 g ai/ha, scale 0 to 100, 0 no effect, 100 complete control, read-out: Plant response rating, Foxtail, Green
  pest or weed control at 62 g/ha: 40%
[4]; Setaria viridis, pre-emergence, Preemergence, scale 0 to 100, 0 no effect, 100 complete control, read-out: Plant response rating, Foxtail, Green
  pest or weed control at 125 g/ha: 60%
[5]; [8]
  Crabgrass, Large plant response rating (0 to 100 scale): 90
[5]; Digitaria sanguinalis, post-emergence, postemergence, scale 0 to 100, 0 is no effect, 100 is complete control, read-out: Plant response rating, Crabgrass, Large
  pest or weed control at 31 g/ha: 85%
[5]; Digitaria sanguinalis, post-emergence, Postemergence, scale 0 to 100 (0 no effect, 100 complete control), read-out: Plant response rating, Crabgrass, Large
  pest or weed control at 125 g/ha: 95%
[5]; Digitaria sanguinalis, post-emergence, Postemergence, 250 g ai/ha, scale 0 to 100 (0 no effect, 100 complete control), read-out: Plant response rating, Crabgrass, Large
  pest or weed control at 250 g/ha: 95%
[5]; Digitaria sanguinalis, pre-emergence, Preemergence, scale 0 to 100 (0 no effect, 100 complete control), read-out: Plant response rating, Crabgrass, Large
  pest or weed control at 31 g/ha: 70%
[5]; Digitaria sanguinalis, pre-emergence, Preemergence, 62 g ai/ha, scale 0 to 100, 0 no effect, 100 complete control, read-out: Plant response rating, Crabgrass, Large
  pest or weed control at 62 g/ha: 98%
[5]; Digitaria sanguinalis, pre-emergence, Preemergence, scale 0 to 100, 0 no effect, 100 complete control, read-out: Plant response rating, Crabgrass, Large
  pest or weed control at 125 g/ha: 100%
[5]; [9]
  Crabgrass, Large plant response rating: 100
[6]; [8]
  Nutsedge, Yellow plant response rating (0 to 100 scale): 75
[6]; Cyperus, post-emergence, postemergence, scale 0 to 100, 0 is no effect, 100 is complete control, read-out: Plant response rating, Nutsedge, Yellow
  pest or weed control at 31 g/ha: 65%
[6]; Cyperus, post-emergence, Postemergence, scale 0 to 100 (0 no effect, 100 complete control), read-out: Plant response rating, Nutsedge, Yellow
  pest or weed control at 125 g/ha: 75%
[6]; Cyperus, post-emergence, Postemergence, 250 g ai/ha, scale 0 to 100 (0 no effect, 100 complete control), read-out: Plant response rating, Nutsedge, Yellow
  pest or weed control at 250 g/ha: 75%
[6]; Cyperus, pre-emergence, Preemergence, scale 0 to 100 (0 no effect, 100 complete control), read-out: Plant response rating, Nutsedge, Yellow
  pest or weed control at 31 g/ha: 65%
[6]; Cyperus, pre-emergence, Preemergence, 62 g ai/ha, scale 0 to 100 (0 no effect, 100 complete control), read-out: Plant response rating, Nutsedge, Yellow
  pest or weed control at 62 g/ha: 80%
[6]; Cyperus, pre-emergence, Preemergence, scale 0 to 100, 0 no effect, 100 complete control, read-out: Plant response rating, Nutsedge, Yellow
  pest or weed control at 125 g/ha: 90%
[6]; [9]
  Nutsedge, Yellow plant response rating: 90
[7]; [8]
  Velvetleaf plant response rating (0 to 100 scale): 95
[7]; Abutilon theophrasti, post-emergence, 360 h, Postemergence, scale 0 to 100 (0 no effect, 100 complete control), read-out: Plant response rating, Velvetleaf
  pest or weed control at 125 g/ha: 98%
[7]; Abutilon theophrasti, post-emergence, 360 h, Postemergence, 250 g ai/ha, scale 0 to 100 (0 no effect, 100 complete control), read-out: Plant response rating, Velvetleaf
  pest or weed control at 250 g/ha: 98%
[7]; Abutilon theophrasti, pre-emergence, 360 h, Preemergence, 31 g ai/ha, scale 0 to 100 (0 no effect, 100 complete control), read-out: Plant response rating, Velvetleaf
  pest or weed control at 31 g/ha: 80%
[7]; Abutilon theophrasti, pre-emergence, 360 h, Preemergence, 62 g ai/ha, scale 0 to 100 (0 no effect, 100 complete control), read-out: Plant response rating, Velvetleaf
  pest or weed control at 62 g/ha: 100%
[7]; Abutilon theophrasti, pre-emergence, 360 h, Preemergence, scale 0 to 100, 0 no effect, 100 complete control, read-out: Plant response rating, Velvetleaf
  pest or weed control at 125 g/ha: 100%
[7]; [9]
  Velvetleaf plant response rating: 100
